Experimental data from ChEMBL document CHEMBL1148571, “Synthesis of 131I-labeled glucose-conjugated inhibitors of O6-methylguanine-DNA methyltransferase (MGMT) and comparison with nonconjugated inhibitors as potential tools for in vivo MGMT imaging” (J Med Chem, 2006).

Target: T1, Methylated-DNA--protein-cysteine methyltransferase (Homo sapiens) (UniProt P16455)
T1 sequence (whole entry): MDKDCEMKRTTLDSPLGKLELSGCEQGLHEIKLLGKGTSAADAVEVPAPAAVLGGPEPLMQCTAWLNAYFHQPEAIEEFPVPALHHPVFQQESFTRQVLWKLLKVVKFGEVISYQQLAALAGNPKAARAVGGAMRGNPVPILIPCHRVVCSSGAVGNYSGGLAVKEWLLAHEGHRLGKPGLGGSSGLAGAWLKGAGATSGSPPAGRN
Assay: Binding to human MGMT
Conditions: tested as the 131I-labelled form

Activity | Structure (SMILES)
97% | Nc1nc(OCc2cccc(I)c2)c2[nH]cnc2n1
80% | Nc1nc(OCc2ccc(I)s2)c2[nH]cnc2n1
